This note sets out measurements from patent publication US9884048B2, “ERK inhibitors” (Merck Sharp & Dohme Corp., priority 2014, dated 2018).

Each structure is given as a SMILES string.

Chain of phosphorylated active hERK2 enzyme (P28482 whole entry): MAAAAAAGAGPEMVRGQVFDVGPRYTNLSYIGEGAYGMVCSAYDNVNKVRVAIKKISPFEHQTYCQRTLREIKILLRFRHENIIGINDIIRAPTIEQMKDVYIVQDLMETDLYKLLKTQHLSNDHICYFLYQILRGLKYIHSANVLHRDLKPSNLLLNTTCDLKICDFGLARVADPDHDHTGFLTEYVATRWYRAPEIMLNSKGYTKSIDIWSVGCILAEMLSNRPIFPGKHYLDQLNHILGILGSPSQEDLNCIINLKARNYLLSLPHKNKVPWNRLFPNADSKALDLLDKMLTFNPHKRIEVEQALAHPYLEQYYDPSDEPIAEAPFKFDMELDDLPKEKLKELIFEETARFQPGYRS

One experiment addresses phosphorylated active hERK2 enzyme (Homo sapiens (Human), UniProt P28482).
Details: not given
In general, IC50 refers to the concentration needed to halve the response being measured. In the case of `C[C@@H](NC(=O)Nc1cc2cnn(CC3CCOCC3)c2c(CO)n1)c1ccccc1` [Example 309, 1-[7-(hydroxymethyl)-1-(tetrahydro-2H-pyran-4-ylmethyl)-1H-pyrazolo[3,4-c]pyridin-5-yl]-3-[(1R)-1-phenylethyl]urea], half-maximal inhibition (IC50) was put at 285 nM.

The experiment is the same for the next values; noted with them: read-out: ERK2 IC50; IMAP-FP assay; 0.5 nM hERK2, 30 μM ATP; 10 point titration, 3 μM starting concentration.
In the case of `C[C@@H](NC(=O)Nc1cc2cnn(-c3ccc(F)cc3)c2c(CN)n1)c1ccccc1` [Example 319, 1-[7-(aminomethyl)-1-(4-fluorophenyl)-1H-pyrazolo[3,4-c]pyridin-5-yl]-3-[(1R)-1-phenylethyl]urea], the IC50 is 516 nM.
As for `Cc1cc(-n2ncc3cc(NC(=O)N[C@@H]4CN(C)C[C@H]4c4cccnc4)ncc32)ccn1` [Example 112, 1-[1-(2-methylpyridin-4-yl)-1H-pyrazolo[3,4-c]pyridin-5-yl]-3-[(3S,4R)-1-methyl-4-pyridin-3-ylpyrrolidin-3-yl)urea], the IC50 turned out to be 48.7 nM.
`C[C@@H](NC(=O)Nc1cc2cnn(-c3cnn(C)c3)c2cn1)c1ccc(F)cc1` [Example 5, 1-[(1R)-1-(4-fluorophenyl)ethyl]-3-[1-(1-methyl-1H-pyrazol-4-yl)-1H-pyrazolo[3,4-c]pyridin-5-yl)urea]: the IC50 amounted to 12.2 nM.
With `Cc1cc(-n2ncc3cc(NC(=O)N[C@H]4CN(C)C[C@@H]4c4cc(C)on4)ncc32)ccn1` [Example 150, 1-[(3R,4S)-1-methyl-4-(5-methylisoxazol-3-yl)pyrrolidin-3-yl]-3-[1-(2-methylpyridin-4-yl)-1H-pyrazolo[3,4-c]pyridin-5-yl]urea], the IC50 came to 32.6 nM.
In the case of `Cn1ncc2cc(NC(=O)NC3CCCN(Cc4c(F)cccc4F)C3)ncc21` (centres unmarked) [Example 236, 1-[1-(2,6-difluorobenzyl)piperidin-3-yl]-3-(1-methyl-1H-pyrazolo[3,4-c]pyridin-5-yl)urea], the IC50 was found to be 531 nM.
For `Cc1cc(-n2ncc3cc(NC(=O)NCC(CO)c4ccccc4)ncc32)ccn1` (centres unmarked) [Example 49, 1-(3-hydroxy-2-phenylpropyl)-3-[1-(2-methylpyridin-4-yl)-1H-pyrazolo[3,4-c]pyridin-5-yl]urea], the IC50 came to 7.66 nM.
With `Cc1cc(-n2ncc3c(F)c(NC(=O)N[C@H](C)c4ccccc4)ncc32)ccn1` [Example 224, (R)-1-(4-Fluoro-1-(2-methylpyridin-4-yl)-1H-pyrazolo[3,4-c]pyridin-5-yl)-3-(1-phenylethyl)urea], the IC50 came out at 8.26 nM.
In the case of `CO[C@H]1CN(Cc2c(F)cccc2F)C[C@@H]1NC(=O)Nc1cc2cnn(-c3ccnc(C)c3)c2cn1` (single isomer, unassigned) [Example 274, 1-[(3R,4R) or (3S, 4S)-1-(2,6-difluorobenzyl)-4-methoxypyrrolidin-3-yl]-3-[1-(2-methylpyridin-4-yl)-1H-pyrazolo[3,4-c]pyridin-5-yl]urea], the IC50 stood at 3.54 nM.
The same measure, in the same setting: in the case of `Cc1cc(-n2ncc3cc(NC(=O)N[C@H]4CN(C)C[C@@H]4Oc4ccccc4)ncc32)ccn1` [Example 158, 1-[(3S,4S)-1-methyl-4-phenoxypyrrolidin-3-yl]-3-[1-(2-methylpyridin-4-yl)-1H-pyrazolo[3,4-c]pyridin-5-yl]urea] it was 20.5 nM.
For `C[C@@H](NC(=O)Nc1cc2cnn(-c3ccc(F)cc3)c2c(COCCO)n1)c1ccccc1` [Example 246, 1-{1-(4-fluorophenyl)-7-[(2-hydroxyethoxy)methyl]-1H-pyrazolo[3,4-c]pyridin-5-yl}-3-[(1R)-1-phenylethyl]urea], the IC50 was determined as 52.2 nM.
The same measure, in the same setting: in the case of `CO[C@H]1CNC[C@@H]1NC(=O)Nc1cc2cnn(-c3ccnc(C)c3)c2cn1` [Example 132, 1-[(3S,4S)-4-methoxypyrrolidin-3-yl]-3-[1-(2-methylpyridin-4-yl)-1H-pyrazolo[3,4-c]pyridin-5-yl]urea] it was 168 nM.
As to `Cc1cc(-n2ncc3cc(NC(=O)NCC4(c5ccccc5)CCOCC4)ncc32)ccn1` [Example 52, 1-[1-(2-methylpyridin-4-yl)-1H-pyrazolo[3,4-c]pyridin-5-yl]-3-[(4-phenyltetrahydro-2H-pyran-4-yl)methyl]urea], the IC50 amounted to 7.09 nM.
Still for that read-out and setting: then `COCc1nc(NC(=O)N[C@H](C)c2ccccc2)cc2cnn(-c3ccnc(C)c3)c12` [Example 247, 1-[7-(methoxymethyl)-1-(2-methylpyridin-4-yl)-1H-pyrazolo[3,4-c]pyridin-5-yl]-3-[(1R)-1-phenylethyl]urea], with 11.1 nM; and `Cc1cc(-n2ncc3cc(NC(=O)N[C@H]4CNC[C@@H]4Oc4ccccc4)ncc32)ccn1` [Example 157, 1-[1-(2-methylpyridin-4-yl)-1H-pyrazolo[3,4-c]pyridin-5-yl]-3-[(3S,4S)-4-phenoxypyrrolidin-3-yl)urea], with 35.3 nM; and `Cc1cc(-n2ncc3cc(NC(=O)N[C@H]4CN(C)C[C@@H]4CCc4ccccc4)ncc32)ccn1` [Example 115, 1-[(3R,4S)-1-methyl-4-(2-phenylethyl)pyrrolidin-3-yl]-3-[1-(2-methylpyridin-4-yl)-1H-pyrazolo[3,4-c]-pyridin-5-yl)urea], with 0.689 nM.
Consider `COc1cccc(F)c1CN1CCC[C@@H](NC(=O)Nc2cc3cnn(-c4ccnc(C)c4)c3cn2)C1` [Example 56, 1-[(3R)-1-(2-fluoro-6-methoxybenzyl)piperidin-3-yl]-3-[1-(2-methylpyridin-4-yl)-1H-pyrazolo[3,4-c]pyridin-5-yl]urea], for which the IC50 came to 0.524 nM.
Same read-out and setting: in the case of `CCOC[C@@H](NC(=O)Nc1cc2cnn(-c3ccnc(C)c3)c2cn1)c1ccccc1` [Example 129, 1-[(1S)-2-ethoxy-1-phenylethyl]-3-[1-(2-methylpyridin-4-yl)-1H-pyrazolo[3,4-c]pyridin-5-yl)urea] it was 1.09 nM.
In the case of `Cc1cc(-n2ncc3cc(NC(=O)NC4CCCN(Cc5nccs5)C4)ncc32)ccn1` (centres unmarked) [Example 267, 1-[1-(2-methylpyridin-4-yl)-1H-pyrazolo[3,4-c]pyridin-5-yl]-3-[1-(1,3-thiazol-2-ylmethyl)piperidin-3-yl]urea], the IC50 was found to be 22.2 nM.
Regarding `Cc1cc(-n2ncc3cc(NC(=O)NC4CCC(c5ccc(F)cc5)C4)ncc32)ccn1` (centres unmarked) [Example 170, 1-[3-(4-fluorophenyl)cyclopentyl]-3-[1-(2-methylpyridin-4-yl)-1H-pyrazolo[3,4-c]pyridin-5-yl]urea], the IC50 was 196 nM.
Take `Cc1cc(-n2ncc3cc(NC(=O)N[C@H](C)c4ccccc4)nc(COCCOCc4ccccc4)c32)ccn1` [Example 252, 1-[7-{[2-(benzyloxy)ethoxy]methyl}-1-(2-methylpyridin-4-yl)-1H-pyrazolo[3,4-c]pyridin-5-yl]-3-[(1R)-1-phenylethyl]urea]: the IC50 worked out at 25.3 nM.
In the case of `CCO[C@H]1CN(Cc2ccccc2C(F)(F)F)C[C@@H]1NC(=O)Nc1cc2cnn(-c3ccnc(C)c3)c2cn1` [Example 279, 1-{(3S,4S)-4-ethoxy-1-[2-(trifluoromethyl)benzyl]pyrrolidin-3-yl}-3-[1-(2-methylpyridin-4-yl)-1H-pyrazolo[3,4-c]pyridin-5-yl]urea], the IC50 stood at 1750 nM.
For `Cc1cc(-n2ncc3cc(NC(=O)NCc4c(-c5ccccc5)noc4C)ncc32)ccn1` [Example 114, 1-[(5-methyl-3-phenyl-isoxazol-4-yl)methyl]-3-[1-(2-methylpyridin-4-yl)-1H-pyrazolo[3,4-c]pyridin-5-yl)urea], the IC50 was determined as 2.14 nM.
On to `Cc1cc(-n2ncc3cc(NC(=O)NCC(c4ccccn4)N4CCOCC4)ncc32)ccn1` (centres unmarked) [Example 73, 1-[1-(2-methylpyridin-4-yl)-1H-pyrazolo[3,4-c]pyridin-5-yl]-3-(2-morpholin-4-yl-2-pyridin-2-ylethyl)urea], for which the concentration for half-maximal inhibition (IC50) amounted to 243 nM.
As to `COCCNC(=O)Nc1cc2cnn(-c3ccnc(C)c3)c2cn1` [Example 111, 1-(2-methoxyethyl)-3-[1-(2-methylpyridin-4-yl)-1H-pyrazolo[3,4-c]pyridin-5-yl)urea], the IC50 turned out to be 81.8 nM.
Consider `Cc1cc(-n2ncc3cc(NC(=O)NCc4ccc5c(c4)CC(=O)N5)ncc32)ccn1` [Example 74, 1-[1-(2-methylpyridin-4-yl)-1H-pyrazolo[3,4-c]pyridin-5-yl]-3-[(2-oxo-2,3-dihydro-1H-indol-5-yl)methyl]urea], for which the IC50 came to 73.1 nM.
Same read-out and setting: in the case of `Cc1cc(-n2ncc3cc(NC(=O)N[C@H]4CN(C)C[C@@H]4c4ccccc4C)ncc32)ccn1` (single isomer, unassigned) [Example 36, 1-[(3R,4S) or (3S, 4R)-1-methyl-4-(2-methylphenyl)pyrrolidin-3-yl]-3-[1-(2-methylpyridin-4-yl)-1H-pyrazolo[3,4-c]pyridin-5-yl)urea] it was 0.83 nM; in that of `Cc1cc(-n2ncc3cc(NC(=O)N[C@@H](c4ccccc4)C(F)F)ncc32)ccn1` [Example 81, 1-[(1S)-2,2-difluoro-1-phenylethyl]-3-[1-(2-methylpyridin-4-yl)-1H-pyrazolo[3,4-c]pyridin-5-yl)urea], 914 nM; in that of `Cc1cc(-n2ncc3cc(NC(=O)NC(CCN4CCCCC4)c4ccccc4)ncc32)ccn1` (centres unmarked) [Example 53, 1-[1-(2-methylpyridin-4-yl)-1H-pyrazolo[3,4-c]pyridin-5-yl]-3-(1-phenyl-3-piperidin-1-ylpropyl)urea], 49.2 nM.
`Cc1cc(-n2ncc3cc(NC(=O)N[C@@H]4CN(C)C(C)(C)[C@H]4c4ccccc4C)ncc32)ccn1` [Example 103, 1-[1-(2-methylpyridin-4-yl)-1H-pyrazolo[3,4-c]pyridin-5-yl]-3-[(3S,4S)-1,5,5-trimethyl-4-(2-methylphenyl)pyrrolidin-3-yl)urea]: the IC50 stood at 1.14 nM.
As to `Cc1cc(-n2ncc3cc(NC(=O)NCC4CN(C)C4)ncc32)ccn1` [Example 264, 1-((1-methylazetidin-3-yl)methyl)-3-(1-(2-methylpyridin-4-yl)-1H-pyrazolo[3,4-c]pyridin-5-yl)urea], the IC50 is 70 nM.
Take `Cc1cc(-n2ncc3cc(NC(=O)N[C@H]4CN(C)C[C@@H]4c4ccc(-c5ccccc5)s4)ncc32)ccn1` [Example 155, 1-[(3R,4S)-1-methyl-4-(5-phenylthiophen-2-yl)pyrrolidin-3-yl]-3-[1-(2-methylpyridin-4-yl)-1H-pyrazolo[3,4-c]pyridin-5-yl]urea]: the IC50 turned out to be 591 nM.
